The values below come from PMC9655245, “Dual Inhibitors of AChE and BACE-1 for Reducing Aβ in Alzheimer’s Disease: From In Silico to In Vivo” (International Journal of Molecular Sciences, 2022).

Assay type in all cases: biochemical
Test [1] addresses T1, AChE (acetylcholinesterase) (Homo sapiens, UniProt P22303).
T1 construct: recombinant, produced in stably expressing CHO-K1 cell line
Briefly: Ellman assay, absorbance at […] nm, 7-point dose response. In general terms: In Ellman's method for cholinesterases, released thiocholine reacts with DTNB.

For test [2], the target named is T2, BACE-1 (β-secretase, beta-site APP cleaving enzyme 1) (Homo sapiens, UniProt P56817).
T2 construct: gene BACE1; commercial recombinant enzyme (R&D Systems 931-AS)
Put plainly: fluorogenic Mca/Dnp peptide cleavage, single point. The source says: fluorogenic Mca/Dnp peptide cleavage, single point on BACE-1 (β-secretase, beta-site APP cleaving enzyme 1)

For test [3], the target named is T2, BACE-1 (β-secretase, beta-site APP cleaving enzyme 1). Put plainly: fluorogenic Mca/Dnp peptide cleavage, 5-point dose response.
The target of test [4] is T1, AChE (acetylcholinesterase). Put plainly: Ellman assay, absorbance at […] nm, single point.

T2 sequence (P56817 46-457 limits assumed): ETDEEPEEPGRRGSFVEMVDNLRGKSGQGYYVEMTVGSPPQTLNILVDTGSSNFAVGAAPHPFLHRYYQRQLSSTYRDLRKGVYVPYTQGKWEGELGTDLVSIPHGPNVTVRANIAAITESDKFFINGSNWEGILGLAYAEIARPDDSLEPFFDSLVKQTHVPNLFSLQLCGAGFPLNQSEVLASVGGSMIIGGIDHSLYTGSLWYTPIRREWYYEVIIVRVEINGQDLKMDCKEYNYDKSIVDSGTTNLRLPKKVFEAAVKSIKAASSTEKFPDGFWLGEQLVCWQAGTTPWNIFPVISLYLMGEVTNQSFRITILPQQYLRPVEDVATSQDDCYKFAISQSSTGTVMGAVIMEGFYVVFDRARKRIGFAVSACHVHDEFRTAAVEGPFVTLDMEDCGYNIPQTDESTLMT
T1 sequence (P22303 32-614): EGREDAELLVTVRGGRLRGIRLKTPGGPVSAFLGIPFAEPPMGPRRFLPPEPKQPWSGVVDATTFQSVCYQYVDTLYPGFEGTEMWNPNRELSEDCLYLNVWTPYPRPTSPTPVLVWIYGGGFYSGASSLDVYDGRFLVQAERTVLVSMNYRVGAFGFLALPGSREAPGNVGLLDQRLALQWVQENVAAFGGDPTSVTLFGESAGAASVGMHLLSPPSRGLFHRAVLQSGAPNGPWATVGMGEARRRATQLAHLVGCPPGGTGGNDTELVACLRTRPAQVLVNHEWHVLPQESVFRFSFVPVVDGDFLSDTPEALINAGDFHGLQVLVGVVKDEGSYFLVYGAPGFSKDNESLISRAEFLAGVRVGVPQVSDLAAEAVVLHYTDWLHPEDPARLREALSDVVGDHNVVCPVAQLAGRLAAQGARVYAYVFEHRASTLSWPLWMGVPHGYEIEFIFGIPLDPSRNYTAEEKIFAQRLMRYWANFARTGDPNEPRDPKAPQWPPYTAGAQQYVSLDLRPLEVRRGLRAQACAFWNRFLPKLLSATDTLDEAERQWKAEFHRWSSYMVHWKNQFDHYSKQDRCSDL

Turning to `Cc1ccc(Cn2c(=O)c(N3CCC(C(=O)NCCN4CCCCC4C)CC3)nc3ccccc32)cc1` (stereo not drawn) [compound 1, C700-2595], inhibition in test [1] was half-maximal at 8.2 µM (IC50). For the same compound, the inhibition (as a rule, the drop in the measured response relative to a control, in per cent) at 100 µM in test [2] is 19%.

As to `CCn1c(=O)c(N2CCCC(C(=O)NC3CCN(Cc4ccccc4)CC3)C2)nc2ccccc21` (stereo not drawn) [compound 2, F681-0222], the half-inhibitory concentration (IC50) (usually the midpoint of a concentration-inhibition curve) in test [3] amounted to 63 µM; in test [1] it was 4.4 µM.

Regarding `Cn1c(=O)c(N2CCCC(C(=O)NC3CCN(Cc4ccccc4)CC3)C2)nc2ccccc21` (stereo not drawn) [compound 3, F681-0412], the IC50 was 55 µM in test [3] and 6.7 µM in test [1].

Consider `CCN1CCCC1CNC(=O)CCc1nnc2n(CCc3ccccc3)c(=O)c3ccccc3n12` (stereo not drawn) [compound 4, C741-0335], for which the IC50 in test [1] stood at 9.7 µM. Besides, the inhibition at 100 µM in test [2] is 6%.

For the compound `COc1cccc(N2CC(C(=O)Nc3ccccc3CN(C)C3CCCCC3)CC2=O)c1` (stereo not drawn) [compound 5, T6769894], in test [4], the inhibition at 10 µM was 19%. The compound further registered an IC50 in test [3] of 60 µM.

As to `CCOc1cccc(C2CC(c3ccc(C)cc3)=NC3(CCN(C(C)=O)CC3)N2)c1O` (stereo not drawn) [compound 6, Z274-0419], the inhibition at 10 µM in test [4] was -12%. Further, in test [3], the IC50 came to 150 µM.
